From US20200163984A1, “USE OF ISOVALERYL SPIRAMYCIN I, II AND/OR III IN MANUFACTURING MEDICAMENT FOR TREATING AND/OR PREVENTING TUMOR, AND MEDICAMENT” (SHENYANG FUYANG PHARMACEUTICAL TECHNOLOGY CO., LTD., priority 2017, published 2020)
≈ marks a conversion by molar mass, not a printed value.

Assays:
[1] = system: human tissue lymphoma cell U937; details: U937, MTT, 48 h
Protocol: (§1) The purpose of the assay is to evaluate the in vitro cell proliferation inhibition or cytotoxic activity of a tested sample.
(§2) U937 and HL-60 were suspension cells, and cells in a logarithmic growth phase were selected and prepared into a 2×10^5/ml cell suspension by a RPMI 1640 culture medium containing 10% fetal bovine serum. And the cell suspension was inoculated in a 96-well culture plate, and each well was 50 μL and the 96-well culture plate was cultured at 37° C. and 5% CO2 for 24 hours. 50 μL of a culture medium containing different concentrations of the tested sample isovaleryl spiramycin I, isovaleryl spiramycin II, or isovaleryl spiramycin III was added in the experimental group, while a culture medium containing the same volume of solvent was added into the control group. Each group was set up with 3 parallel wells that were cultured at 37° C. and 5% CO2 for 48 h. And 10 μL of freshly prepared medium containing 5 mg/ml MTT was added into each well for continuous incubation for 4 hours at 37° C. The crystals were dissolved in 100 μL of a triple solution (SDS 10 g, 10 M HCl 0.1 mL, isobutanol 5 mL, diluted with distilled water to 100 mL), and incubated at 37° C. for 12 hours. The optical density value was measured at 492 nm with a microplate reader.
(§3) The inhibition rate of the medicament on tumor cell growth is calculated according to the following formula:
(§4) Tumor cell growth inhibition rate (%)=[A492 (negative control)−A492 (dosing group)]/A492 (negative control)×100%
(§5) And the half-inhibitory concentration (IC50) of the sample is determined therefrom.

[2] = system: human promyelocytic leukemia cell HL-60; details: HL-60, MTT, 48 h
Protocol: as §1, §2, §3, §4, §5

[3] = system: transplanted tumor of human hepatoma cell HepG-2; assay: HepG-2 transplanted tumor in nude mice; details: for Tumor Volume (mm3) (d 1): d1
Protocol: (§6) Then cell concentration was adjusted to 1×10^7/ml with matrigel, then each nude mouse was inoculated subcutaneously with 0.2 ml of cells at its right armpit and recorded as the first day of inoculation. When the tumor grows to be greater than or equal to 100 mm^3, the mice were randomly divided into 11 groups with 6 mice in each group: a model group, a cyclophosphamide group, isovaleryl spiramycin I groups with doses of 25, 50 and 100 mg/kg, isovaleryl spiramycin II groups with doses of 25, 50 and 100 mg/kg, and isovaleryl spiramycin III groups with doses of 25, 50 and 100 mg/kg. Each group was continuously administered intragastrically for 30 days with a dose of 20 ml/kg. The mice were sacrificed the next day after drug withdrawal and the indicators were tested. The long diameter and short diameter of the tumor, and the body weight of each mouse were recorded every 3 days from drug administration to nude mouse sacrifice.
(§7) The body weight of the nude mice and the long diameter (a) and short diameter (b) of the transplanted tumor were measured every 3 days, and the tumor volume (v), relative tumor volume (RTV) and relative tumor proliferation rate (T/C) are calculated respectively according to the following formulas, wherein V=a×b^2/2; RTV=V/V0 (V0 is the tumor volume before administration, V is the tumor volume before sacrifice), and T/C (%)=treatment group RTV/model control group RTV×100%.
(§8) Each mouse was weighed and sacrificed. After the tumor was completely stripped off from the body of the mouse, the non-tumor tissues such as blood stains and fat were removed to weigh the tumor and calculate the tumor growth inhibition rate. The average tumor weight of each group of mice is used as an indicator of efficacy. Tumor growth inhibition rate (%)=(1−the average tumor weight of the treatment group/the average tumor weight of the model group)×100%.

[4] = system: transplanted tumor of human cervical cancer cell HeLa; assay: HeLa transplanted tumor in nude mice; details: for Tumor Volume (mm3) (d 1): d1
Protocol: as §6, with “HeLa cells in a logarithmic growth phase were taken and subjected to a trypan blue exclusion experiment showing that the cell viability was more than 95%, then the cells were subjected to trypsinization, centrifugation, and supernatant removal. Then” for “Then”
as §7, §8

[5] = HepG-2, high dose (100 mg/kg in method) i.g. 30 days
[6] = HepG-2, low dose (25 mg/kg in method) i.g. 30 days
[7] = HepG-2, medium dose (50 mg/kg in method) i.g. 30 days
[8] = HeLa, high dose (100 mg/kg in method) i.g. 30 days
[9] = HeLa, low dose (25 mg/kg in method) i.g. 30 days
[10] = HeLa, medium dose (50 mg/kg in method) i.g. 30 days

SMILES: COC1C(OC(C)=O)CC(=O)OC(C)CC=CC=CC(OC2CCC(N(C)C)C(C)O2)C(C)CC(CC=O)C1OC1OC(C)C(OC2CC(C)(O)C(OC(=O)CC(C)C)C(C)O2)C(N(C)C)C1O (stereo not drawn) [Isovaleryl spiramycin II, isovaleryl spiramycin II]
- IC50 [1]: 34.92 ± 0.81 µg/mL (≈ 36 µM)
- IC50 [2]: 29.39 ± 1.82 µg/mL (≈ 30.3 µM)
- Relative Tumor Proliferation Rate (T/C) [3, 5]: 39.31%
- tumor growth inhibition rate [3, 5]: 61.56%
- Relative Tumor Proliferation Rate (T/C) [3, 6]: 81.03%
- tumor growth inhibition rate [3, 6]: 21.07%
- tumor volume and relative tumor volume compared with the model group ([3]; HepG-2, low, medium and high doses, P<0.05): significantly lower
- Relative Tumor Proliferation Rate (T/C) [3, 7]: 57.02%
- tumor growth inhibition rate [3, 7]: 31.43%
- Inhibition Rate (%) ([3]; HepG-2 nude mice, 25 mg/kg): 21.07%
- Relative Tumor Proliferation Rate (T/C) ([3]; HepG-2 nude mice, 25 mg/kg): 81.03%
- Relative Tumor Volume (RTV) ([3]; HepG-2 nude mice, 25 mg/kg): 13.57 ± 1.64
- Tumor Weight ([3]; HepG-2 nude mice, 25 mg/kg): 1.92 ± 0.32 g
- Tumor Volume (mm3) (d 1) ([3]; HepG-2 nude mice, 25 mg/kg): 122.82 ± 4.10 mm3
- Tumor Volume (mm3) (d30) ([3]; HepG-2 nude mice, 25 mg/kg): 1666.11 ± 202.07 mm3
- Inhibition Rate (%) ([3]; HepG-2 nude mice, 50 mg/kg): 31.43%
- Relative Tumor Proliferation Rate (T/C) ([3]; HepG-2 nude mice, 50 mg/kg): 57.02%
- Relative Tumor Volume (RTV) ([3]; HepG-2 nude mice, 50 mg/kg): 9.55 ± 2.84
- Tumor Weight ([3]; HepG-2 nude mice, 50 mg/kg): 1.67 ± 0.32 g
- Tumor Volume (mm3) (d 1) ([3]; HepG-2 nude mice, 50 mg/kg): 118.60 ± 4.30 mm3
- Tumor Volume (mm3) (d30) ([3]; HepG-2 nude mice, 50 mg/kg): 1127.90 ± 319.12 mm3
- Inhibition Rate (%) ([3]; HepG-2 nude mice, 100 mg/kg): 61.56%
- Relative Tumor Proliferation Rate (T/C) ([3]; HepG-2 nude mice, 100 mg/kg): 39.31%
- Relative Tumor Volume (RTV) ([3]; HepG-2 nude mice, 100 mg/kg): 6.58 ± 2.48
- Tumor Weight ([3]; HepG-2 nude mice, 100 mg/kg): 0.93 ± 0.41 g
- Tumor Volume (mm3) (d 1) ([3]; HepG-2 nude mice, 100 mg/kg): 118.70 ± 7.20 mm3
- Tumor Volume (mm3) (d30) ([3]; HepG-2 nude mice, 100 mg/kg): 783.73 ± 312.41 mm3
- mouse weight compared with the model group ([3]; mouse, in vivo): no significant changes
- Body Weight (g) (d1) ([3]; mouse, in vivo, 25 mg/kg): 21.98 ± 1.74 g
- Body Weight (g) (d30) ([3]; mouse, in vivo, 25 mg/kg): 23.35 ± 1.83 g
- Body Weight (g) (d1) ([3]; mouse, in vivo, 50 mg/kg): 20.75 ± 1.86 g
- Body Weight (g) (d30) ([3]; mouse, in vivo, 50 mg/kg): 22.22 ± 1.62 g
- Body Weight (g) (d1) ([3]; mouse, in vivo, 100 mg/kg): 21.48 ± 1.98 g
- Body Weight (g) (d30) ([3]; mouse, in vivo, 100 mg/kg): 22.45 ± 1.28 g
- Inhibition Rate (%) ([4]; HeLa nude mice, 12.5 mg/kg): 30.67%
- Relative Tumor Proliferation Rate (T/C) ([4]; HeLa nude mice, 12.5 mg/kg): 68.55%
- Relative Tumor Volume (RTV) ([4]; HeLa nude mice, 12.5 mg/kg): 11.36 ± 2.90
- Tumor Weight ([4]; HeLa nude mice, 12.5 mg/kg): 1.34 ± 0.60 g
- Tumor Volume (mm3) (d 1) ([4]; HeLa nude mice, 12.5 mg/kg): 115.41 ± 23.27 mm3
- Tumor Volume (mm3) (d30) ([4]; HeLa nude mice, 12.5 mg/kg): 1301.28 ± 391.77 mm3
- Inhibition Rate (%) ([4]; HeLa nude mice, 25 mg/kg): 42.90%
- Relative Tumor Proliferation Rate (T/C) ([4]; HeLa nude mice, 25 mg/kg): 56.07%
- Relative Tumor Volume (RTV) ([4]; HeLa nude mice, 25 mg/kg): 9.30 ± 1.74
- Tumor Weight ([4]; HeLa nude mice, 25 mg/kg): 1.10 ± 0.62 g
- Tumor Volume (mm3) (d 1) ([4]; HeLa nude mice, 25 mg/kg): 125.04 ± 20.71 mm3
- Tumor Volume (mm3) (d30) ([4]; HeLa nude mice, 25 mg/kg): 1184.42 ± 369.49 mm3
- Inhibition Rate (%) ([4]; HeLa nude mice, 50 mg/kg): 43.30%
- Relative Tumor Proliferation Rate (T/C) ([4]; HeLa nude mice, 50 mg/kg): 45.96%
- Relative Tumor Volume (RTV) ([4]; HeLa nude mice, 50 mg/kg): 7.62 ± 0.85
- Tumor Weight ([4]; HeLa nude mice, 50 mg/kg): 1.10 ± 0.61 g
- Tumor Volume (mm3) (d 1) ([4]; HeLa nude mice, 50 mg/kg): 111.84 ± 4.83 mm3
- Tumor Volume (mm3) (d30) ([4]; HeLa nude mice, 50 mg/kg): 851.58 ± 93.66 mm3
- Relative Tumor Proliferation Rate (T/C) [4, 8]: 43.30%
- tumor growth inhibition rate [4, 8]: 43.30%
- Relative Tumor Proliferation Rate (T/C) [4, 9]: 30.67%
- tumor growth inhibition rate [4, 9]: 30.67%
- tumor volume and relative tumor volume compared with the model group ([4]; HeLa, low, medium and high doses, P<0.05): significantly lower
- Relative Tumor Proliferation Rate (T/C) [4, 10]: 42.90%
- tumor growth inhibition rate [4, 10]: 42.90%
- mouse weight compared with the model group ([4]; mouse, in vivo): no significant changes
- Body Weight (g) (d1) ([4]; mouse, in vivo, 12.5 mg/kg): 20.92 ± 0.46 g
- Body Weight (g) (d30) ([4]; mouse, in vivo, 12.5 mg/kg): 21.16 ± 0.51 g
- Body Weight (g) (d1) ([4]; mouse, in vivo, 25 mg/kg): 20.87 ± 0.34 g
- Body Weight (g) (d30) ([4]; mouse, in vivo, 25 mg/kg): 21.25 ± 0.55 g
- Body Weight (g) (d1) ([4]; mouse, in vivo, 50 mg/kg): 20.77 ± 0.43 g
- Body Weight (g) (d30) ([4]; mouse, in vivo, 50 mg/kg): 21.09 ± 0.36 g
